These results are taken from patent publication US20050019931A1, “Nucleic acids encoding antifungal drug targets and methods of use” (Elitra Pharmaceuticals, Inc., priority 2002, published 2005).

Data set [1] has as its system CaHIS3 (imidazoleglycerol phosphate dehydratase) wild type, heterozygote and GRACE strains. Kind of data set: Target level variation whole cell assay: sensitivity of CaHIS3 strains towards 3-aminotriazole. It is filed as cell-based, Candida albicans. To be noted: for sensitivity of CaHIS3 GRACE strain minimally expressing CaHIS3 (partial repression, threshold tetracycline): FIG. 6C/6D. The source says: The data derived from these experiments clearly indicate that distinct levels of target gene products synthesized within the pathogen could be directly applied in whole cell assay based drug screens to identify novel antifungal compounds active against novel drug targets validated using the GRACE method.
3-AT is a competitive inhibitor of the enzyme encoded by CaHIS3, imidazoleglycerol phosphate dehydratase, and together serve as a model for a drug and drug target respectively. […] The phenotype observed is consistent with that expected in light of the predicted 7.5 fold overexpression of CaHIS3 determined by Northern bolt analysis (see FIG. 5). […] A third CaHIS3 expression level evaluated for differential sensitivity to 3-AT was produced by partial repression of the GRACE CaHIS3 strain using a threshold concentration of tetracycline 0.1% […].
(§1) Moreover, these experiments clearly indicate how distinct levels of target gene products synthesized within the pathogen could be directly applied in whole cell assay based drug screens to identify novel antifungal compounds against those novel drug targets validated using the GRACE method.

The subject of data set [2] is bar-coded strains bearing heterozygous mutations in HIS3, TUB 1, ALG7, and ERG 11. To be noted: mixed population; HIS3, TUB 1, ALG7, ERG 11 respectively; cited from earlier work.
The test system of another data set is C. albicans. Description: Sensitivity of C. albicans to selection antibiotics (dominant selectable markers). It is filed as cell-based, Candida albicans. The source says: Several art-known methods are available to create a heterozygote mutant. In less preferred embodiments, auxotrophic markers, such as but not limited to CaURA3, CaHIS3, CaLEU2, or CaTRP1, could be used for gene disruption if desired. However, the preferred method of heterozygote construction in diploid fungi employs a genetically modified dominant selectable marker. C. albicans is sensitive to the nucleoside-like antibiotic streptothricin at a concentration of 200 micrograms per milliliter. The presence of the Escherichia coli SAT1 gene within C. albicans allows acetylation of the drug rendering it nontoxic and permitting the strain to grow in the presence of streptothricin at a concentration of 200 micrograms per milliliter. Expression of the SAT1 gene in C. albicans is made possible by engineering the gene so that its DNA sequence is altered to conform to the genetic code of this organism and by providing a CaACT1 promoter (Morschhauser et al. (1998) Mol. Gen. Genet. 257:412-420) and a CaPCK1 terminator sequence (Leuker et al. (1997) Gene 192: 235-40). This genetically modified marker is referred to as CaSAT1 which is the subject of a copending United States nonprovisional application, published under the publication no. US20010031724, which is incorporated herein by reference in its entirety. […]

A further data set relates to CaERG11 GRACE strain. Kind of data set: GRACE strain drug resistance/sensitivity by increasing and decreasing target expression. It is filed as cell-based, Candida albicans.
Excerpt: as §1

For a further data set, the system named is CaALG7 GRACE strain. Described as above. It is filed as cell-based, Candida albicans.
Excerpt: as §1

[3] abbreviates: inhibitory 3-AT concentration, FIG. 6A.
Where [4] appears, read: intermediate 3-AT concentration, FIG. 6B.

On to `Nc1nc[nH]n1` [3-AT, 3-aminotriazole], for which, in data set [1] (setting [3]), the “growth of CaHIS3 heterozygote strain” value was “completely inhibit growth”, the “growth of wild type CaHIS3 strain” value was “completely inhibit growth” and the “phenotype of CaHIS3 GRACE strain overexpressing CaHIS3 (constitutive tetracycline promoter expression)” value was “resistance”. In addition, in data set [1] (setting [4]), the “effect on tetracycline promoter-based overproducing CaHIS3 strain” value is listed as “unable to effect”, the “effect on wild type CaHIS3 strain” value is given as “unable to effect” and the “sensitivity of heterozygous CaHIS3 strain (haploinsufficient phenotype)” value is recorded as “enhanced sensitivity”. Also, in data set [1] (intermediate 3-AT concentration), the “sensitivity of CaHIS3 GRACE strain minimally expressing CaHIS3 (partial repression, threshold tetracycline)” value is recorded as “enhanced drug sensitivity relative the heterozygous CaHIS3 strain”. Moreover, the “sensitivity of CaHIS3 GRACE strain minimally expressing CaHIS3 (partial repression, threshold tetracycline)” value in data set [1] (intermediate 3-AT concentration, listed as 3-aminotriazole) is reported as “hypersensitivity”. Moreover, in data set [2], the “sensitivity of the bar-coded strain heterozygous for the respective drug target versus other heterozygote bar-coded strains” value is “significantly greater sensitivity”.

With `CCCCNC(=O)n1c(NC(=O)OC)nc2ccccc21` [benomyl], in data set [2], the “sensitivity of the bar-coded strain heterozygous for the respective drug target versus other heterozygote bar-coded strains” value is given as “significantly greater sensitivity”.

Consider `CN(CC[C@H](N)CC(=O)N[C@H]1C=C[C@H](n2ccc(N)nc2=O)O[C@@H]1C(=O)O)C(=N)N` [blasticidin], for which, in the data set with C. albicans (concentration not given), the “sensitivity of C. albicans” value is on record as “sensitive”.

On to `OC(Cn1cncn1)(Cn1cncn1)c1ccc(F)cc1F` [fluconazole], for which, in the data set on CaERG11 GRACE strain, the “GRACE strain-specific phenotypes on increasing and decreasing expression of the known drug target” value was “drug resistance and sensitivity phenotypes”. For the same compound, the “sensitivity of the bar-coded strain heterozygous for the respective drug target versus other heterozygote bar-coded strains” value in data set [2] is “significantly greater sensitivity”.

Turning to streptothricin, the “sensitivity of C. albicans” value with C. albicans (concentration of 200 micrograms per milliliter) is “sensitive”.

Take tunicamycin: in the data set on CaALG7 GRACE strain, the “GRACE strain-specific phenotypes on increasing and decreasing expression of the known drug target” value is “drug resistance and sensitivity phenotypes”. Also, the “sensitivity of the bar-coded strain heterozygous for the respective drug target versus other heterozygote bar-coded strains” value in data set [2] is “significantly greater sensitivity”.
